These results are taken from patent publication US9107415B2, “2-(substituted-phenyl)-cyclopentane-1,3-dione compounds, and derivatives thereof” (Syngenta Limited, priority 2011, dated 2015).

Molecules are shown by their SMILES.

What all share (assay type): in vivo
In assay [1] the test system is Lolium multiflorum (LOLMU). In words: Biological Example 4B (not-previously-formulated compounds) post-emergence herbicidal activity on grassy weeds. To be noted: 14 DAA, technical compound in IF50 + Adigor, mean of two. The method, then: (§1) Seeds of a variety of test species are sown in standard soil in pots. After cultivation for 14 days under controlled conditions in a glasshouse (at 22/16°C., day/night; 16 hours light; 65% humidity), the plants are sprayed with an aqueous spray solution derived from the formulation of the technical active ingredient dissolved in acetone plus IF50 containing
(§2) 10.56 wt % Emulsogen™EL (castor oil ethoxylate, CAS Registry number 61791-12-6)
(§3) 42.22 wt % N-Methyl pyrrolidone
(§4) 42.22 wt % dipropylene glycol monoethyl ether
(§5) at a 1:20 ratio of (technical active ingredient:IF50). The adjuvant Adigor™(an adjuvant containing inter alia methylated rapeseed oil, e.g. available from Syngenta) is added to form a 0.5% v/v solution. The test plants are then grown on under controlled conditions in the glasshouse (at 22/16°C., day/night; 16 hours light; 65% humidity) and are watered twice daily. After 14 days the test is evaluated (100%=total damage to plant; 0%=no damage to plant).
(§6) Post-emergence herbicidal activity (phytotoxicity) data, on certain grassy monocotyledonous weeds and cereal crops in a glasshouse, are measured 14 days after application of the herbicide (14 DAA), for (a) a […] the same time as the herbicide, and (b) for a post-emergence application rate of 30 g/ha of the test herbicide with 50 g/ha of cloquintocet-mexyl safener applied at substantially the same time as the herbicide. Herbicidal activity (phytotoxicity) is evaluated visually, and an assessed percentage phytotoxicity score is given for each herbicidal application on each plant species (with 100%=total damage to plant; 0%=no damage to plant). Two repetitions are made for each experiment, and the mean herbicidal activity (phytotoxicity) data is reported.
(§7) Test plants: Avena fatua (AVEFA), Lolium multiflorum (LOLMU), Setaria viridis (SETVI), Poa annua (POAAN), Alopecurus myosuroides (ALOMY). All five of these are grassy monocotyledonous weeds.

For a further assay, the system named is Spring Wheat “Teal”. Description: Biological Example 4B post-emergence phytotoxicity on cereal crops. The following applies: 14 DAA, technical compound in IF50 + Adigor, mean of two. The method, then: as §1, §2, §3, §4, §5, §6
In assay [2] the test system is Triticum aestivum, wheat (TRZAW). In words: Biological Example 3 glasshouse screen, post-emergence, phytotoxicity on wheat. To be noted: 360 h, 15 DAA, no safener, read-out: TRZAW percentage phytotoxicity; for pest or weed control at 30 g/ha: application rate 30 g/ha; for pest or weed control at 60 g/ha: application rate 60 g/ha. The method in brief:
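Post-em spray, 12 d after sowing; a.i.:IF50 1:20 in acetone, diluted in water + 0.2% v/v X-77; no cloquintocet-mexyl. Glasshouse 24/18 or 20/16°C d/n, 16 h light, 65% RH, watered twice daily. Visual % phytotox at 15 DAA.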

For assay [3], the system named is Lolium perenne (LOLPE). Description: Biological Example 1 glasshouse screen, post-emergence herbicidal activity. The following applies: 312 h, application rate 250 g/ha, evaluated after 13 days, read-out: LOLPE percentage phytotoxicity. The essentials: (§8)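 Pots in a glasshouse (24/16°C day/night, 14 h light, 65% humidity) were sprayed one day after sowing (pre-emergence) or after 8 days (post-emergence), using acetone/water (50:50) with 0.5% Tween 20. Phytotoxicity was scored visually as % damage (0-100) 13 days after application.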

The subject of assay [4] is Avena fatua (AVEFA). The assay is described as above. To be noted: 312 h, application rate 250 g/ha, evaluated after 13 days, read-out: AVEFA percentage phytotoxicity. The method in brief:
as §8

For the next assay, the system named is Poa annua (POAAN). In words: Biological Example 4B (not-previously-formulated compounds) post-emergence herbicidal activity on grassy weeds. To be noted: 14 DAA, technical compound in IF50 + Adigor, mean of two. The method, then: as §1, §2, §3, §4, §5
[…] Herbicidal activity (phytotoxicity) is evaluated visually, and an assessed percentage phytotoxicity score is given for each herbicidal application on each plant species (with 100%=total damage to plant; 0%=no damage to plant). Two repetitions are made for each experiment, and the mean herbicidal activity (phytotoxicity) data is reported.
as §7

The subject of assay [5] is Lolium perenne (LOLPE). In words: Biological Example 1 glasshouse screen, pre-emergence herbicidal activity. The following applies: 312 h, application rate 250 g/ha, evaluated after 13 days, read-out: LOLPE percentage phytotoxicity. The method in brief:
as §8

The test system of assay [6] is Avena fatua (AVEFA). The description is as above. To be noted: 312 h, application rate 250 g/ha, evaluated after 13 days, read-out: AVEFA percentage phytotoxicity. The method in brief:
as §8

Assay [7] relates to Echinochloa crus-galli (ECHCG). The description is as above. To be noted: 312 h, application rate 250 g/ha, evaluated after 13 days, read-out: ECHCG percentage phytotoxicity. The method in brief:
(§9)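 Thirteen days after spraying, each species was given a visual phytotoxicity score (100% = total damage; 0% = none). Application was made one day post-sowing for pre-emergence and after 8 days' cultivation for post-emergence; conditions 24/16°C, 14 h photoperiod, 65% humidity.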

Assay [8] has as its system Alopecurus myosuroides (ALOMY). The description is as above. To be noted: 312 h, application rate 250 g/ha, evaluated after 13 days, read-out: ALOMY percentage phytotoxicity. The essentials: as §9
Where [9] appears, read: 15 g/ha, cloquintocet-mexyl 50 g/ha.
Setting [10] is: 30 g/ha, cloquintocet-mexyl 50 g/ha.
The mark [11] stands for this setting: 60 g/ha, cloquintocet-mexyl 0 g/ha.
Setting [12] is: 60 g/ha, cloquintocet-mexyl 50 g/ha.

In the case of `CC#Cc1cc(C)c(C2C(=O)CC(Cc3ccn(C)n3)C2=O)c(C)c1` (stereo not shown) [Compound A-19], the LOLMU % phytotoxicity was 98% in assay [1] (setting [9]), 100% in assay [1] (setting [10]), 100% in assay [1] (setting [11]) and 100% in [1] (setting [12]). Also, the “Spring Wheat “Teal” phytotoxicity (%)” value with Spring Wheat “Teal” (setting [9]) is listed as 23%; with Spring Wheat “Teal” (setting [10]) it was 73%; with Spring Wheat “Teal” (setting [11]) it was 90%; in the assay with Spring Wheat “Teal” (setting [12]) it was 83%. Besides, the pest or weed control at 15 g/ha in assay [2] (application rate 15 g/ha) was 20%. Moreover, the pest or weed control at 30 g/ha in assay [2] worked out at 70%. Moreover, the pest or weed control at 250 g/ha (with Lolium perenne (LOLPE) [3]; in the assay on Avena fatua (AVEFA) [4]; in the assay with Lolium perenne (LOLPE) [5]; in the assay with Avena fatua (AVEFA) [6]; in [7]; in assay [8]) was 100% in each case. Also, the POAAN % phytotoxicity in the assay with Poa annua (POAAN) (setting [9]) came out at 75%; with Poa annua (POAAN) (setting [10]) it was 80%; in the assay with Poa annua (POAAN) (setting [11]), 92%; in the assay with Poa annua (POAAN) (setting [12]) it was 92%.
For the compound `CC#Cc1cc(C)c(C2=C(O)CC(Cc3ccc(C)cn3)C2=O)c(C)c1` (stereo not shown) [Compound A-8], the values for the LOLMU % phytotoxicity in assay [1] (setting [10]), in assay [1] (setting [11]) and in assay [1] (setting [12]) were 68%, 92% and 94%, respectively. For the same compound, the “Spring Wheat “Teal” phytotoxicity (%)” value in the assay on Spring Wheat “Teal” (setting [10]) was determined as 0%; in the assay with Spring Wheat “Teal” (setting [11]), 73%; in the assay on Spring Wheat “Teal” (setting [12]) it was 25%. Besides, the pest or weed control at 30 g/ha in assay [2] was found to be 40%. Moreover, the pest or weed control at 250 g/ha (in the assay with Lolium perenne (LOLPE) [3]; with Avena fatua (AVEFA) [4]; in the assay on Lolium perenne (LOLPE) [5]; in the assay on Avena fatua (AVEFA) [6]; in [7]; in assay [8]) was 100% in each case. Also, the POAAN % phytotoxicity was 65% in the assay on Poa annua (POAAN) (setting [10]), 80% in the assay on Poa annua (POAAN) (setting [11]) and 75% in the assay with Poa annua (POAAN) (setting [12]).
With `CC#Cc1cc(C)c(C2=C(O)CC(Cc3ccc(F)cn3)C2=O)c(C)c1` (stereo not shown) [Compound A-11], the figures for the LOLMU % phytotoxicity in [1] (setting [10]), in assay [1] (setting [11]) and in assay [1] (setting [12]) were 68%, 95% and 88%, respectively. In addition, the results for the “Spring Wheat “Teal” phytotoxicity (%)” value with Spring Wheat “Teal” (setting [10]), in the assay with Spring Wheat “Teal” (setting [11]) and with Spring Wheat “Teal” (setting [12]) were 8%, 38% and 15%, respectively. Further, in assay [2], the pest or weed control at 30 g/ha came to 40%. For the same compound, the pest or weed control at 60 g/ha in assay [2] worked out at 50%. Besides, the pest or weed control at 250 g/ha amounted to 100% with Lolium perenne (LOLPE) [3]; 90% with Avena fatua (AVEFA) [4]; 100% with Lolium perenne (LOLPE) [5]; 70% with Avena fatua (AVEFA) [6]; 100% in [7]; 90% in [8]. Besides, the POAAN % phytotoxicity in the assay with Poa annua (POAAN) (setting [10]) came to 70%; in the assay with Poa annua (POAAN) (setting [11]), 75%; in the assay on Poa annua (POAAN) (setting [12]), 75%.
For `CC#Cc1cc(C)c(C2=C(O)CC(Cc3ccc(C#N)cn3)C2=O)c(C)c1` (stereo not shown) [Compound A-14], the values for the LOLMU % phytotoxicity in assay [1] (setting [10]), in assay [1] (setting [11]) and in [1] (setting [12]) were 88%, 100% and 97%, respectively. Further, the figures for the “Spring Wheat “Teal” phytotoxicity (%)” value in the assay on Spring Wheat “Teal” (setting [10]), in the assay on Spring Wheat “Teal” (setting [11]) and in the assay on Spring Wheat “Teal” (setting [12]) were 13%, 83% and 65%, respectively. The pest or weed control at 30 g/ha in [2] is 20%. Moreover, the pest or weed control at 60 g/ha in assay [2] came to 40%. The pest or weed control at 250 g/ha with Lolium perenne (LOLPE) [3] came to 100%; in the assay on Avena fatua (AVEFA) [4] it was 90%; with Lolium perenne (LOLPE) [5], 90%; in the assay with Avena fatua (AVEFA) [6], 50%; in assay [7], 90%; in assay [8], 90%. Moreover, the POAAN % phytotoxicity in the assay with Poa annua (POAAN) (setting [10]) is on record as 83%; in the assay with Poa annua (POAAN) (setting [11]) it was 85%; with Poa annua (POAAN) (setting [12]) it was 85%.
